In one test the target is human FPR2 (Homo sapiens (Human), UniProt P25090). Briefly: FPR2 cyclic adenosine monophosphate (cAMP) assay. The format is cell-based. As to conditions: read-out: hFPR2 cAMP2 EC50. An excerpt:
(§1) N-formyl peptide receptors (FPRs) are a family of chemo attractant receptors that facilitate leukocyte response during inflammation. FPRs belong to the seven-transmembrane G protein-coupled receptor superfamily and are linked to inhibitory G-proteins (Gi). Three family members (FPR1, FPR2 and FPR3) have been identified in humans and are predominantly found in myeloid cells with varied distribution and have also been reported in multiple organs and tissues. After agonist binding, the FPRs activate a multitude of physiological pathways, such as intra cellular signaling transduction, Ca^21 mobilization and transcription. The family interacts with a diverse set of ligands that includes proteins, polypeptides and fatty acid metabolites which activate both pro-inflammatory and pro-resolution downstream responses. FPR2 and FPR1 Cyclic Adenosine Monophosphate (cAMP) Assays were used to measure the activity of the compounds in this patent.
(§2) FPR2 and FPR1 Cyclic Adenosine Monophosphate (cAMP) Assays. A mixture of forskolin (5 μM final for FPR2 or 10 μM final for FPR1) and IBMX (200 μM final) were added to 384-well Proxiplates (Perkin-Elmer) pre-dotted with test compounds in DMSO (1% final) at final concentrations in the range of 0.020 nM to 100 μM. Chinese Hamster Ovary cells (CHO) overexpressing human FPR1 or human FPR2 receptors were cultured in F-12 (Ham's) medium supplemented with 10% qualified FBS, 250 μg/ml zeocin and 300 μg/ml hygromycin (Life Technologies). Reactions were initiated by adding 2,000 human FPR2 cells per well or 4,000 human FPR1 cells per well in Dulbecco's PBS (with calcium and magnesium) (Life Technologies) supplemented with 0.1% BSA (Perkin-Elmer). The reaction mixtures were incubated for 30 min at room temperature. The level of intracellular cAMP was determined using the HTRF HiRange cAMP assay reagent kit (Cisbio) according to manufacturer's instruction. Solutions of cryptate conjugated anti-cAMP and d2 flurorophore-labelled cAMP were made in a supplied lysis buffer separately. Upon completion of the reaction, the cells were lysed with equal volume of the d2-cAMP solution and anti-cAMP solution. After a 1-h room temperature incubation, time-resolved fluorescence intensity was measured using the Envision (Perkin-Elmer) at 400 nm excitation and dual emission at 590 nm and 665 nm. A calibration curve was constructed with an external cAMP standard at concentrations ranging from 1 μM to 0.1 μM by plotting the fluorescent intensity ratio from 665 nm emission to the intensity from the 590 nm emission against cAMP concentrations. The potency and activity of a compound to inhibit cAMP production was then determined by fitting to a 4-parametric logistic equation from a plot of cAMP level versus compound concentrations.

The target in another test is human FPR1 (Homo sapiens (Human), UniProt P21462). Put plainly: FPR1 cyclic adenosine monophosphate (cAMP) assay. As to conditions: read-out: hFPR1 cAMP EC50. It is filed as cell-based.
From the text: as §1, §2

Where [1] appears, read: CHO cells overexpressing human FPR2, forskolin 5 μM, IBMX 200 μM, inhibition of cAMP production, HTRF.
[2] abbreviates: CHO cells overexpressing human FPR1, forskolin 10 μM, IBMX 200 μM, inhibition of cAMP production, HTRF.

Where two headings read alike, the source gives them in different places. Bounds are passed on as bounds.

This is an account of results in patent US20230303513A1, “OXOPYRROLIDINE UREA FPR2 AGONISTS” (BRISTOL-MYERS SQUIBB COMPANY, priority 2020, published 2023).

human FPR2, sequence (P25090 whole entry): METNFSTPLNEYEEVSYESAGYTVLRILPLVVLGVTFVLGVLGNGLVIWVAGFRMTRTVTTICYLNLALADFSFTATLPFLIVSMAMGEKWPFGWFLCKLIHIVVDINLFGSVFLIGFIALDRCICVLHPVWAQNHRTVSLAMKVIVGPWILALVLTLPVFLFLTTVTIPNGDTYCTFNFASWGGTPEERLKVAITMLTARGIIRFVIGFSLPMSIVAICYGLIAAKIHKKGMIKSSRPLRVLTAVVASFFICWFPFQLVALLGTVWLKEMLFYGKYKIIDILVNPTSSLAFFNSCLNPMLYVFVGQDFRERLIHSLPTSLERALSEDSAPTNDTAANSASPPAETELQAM
human FPR1, sequence (P21462 whole entry): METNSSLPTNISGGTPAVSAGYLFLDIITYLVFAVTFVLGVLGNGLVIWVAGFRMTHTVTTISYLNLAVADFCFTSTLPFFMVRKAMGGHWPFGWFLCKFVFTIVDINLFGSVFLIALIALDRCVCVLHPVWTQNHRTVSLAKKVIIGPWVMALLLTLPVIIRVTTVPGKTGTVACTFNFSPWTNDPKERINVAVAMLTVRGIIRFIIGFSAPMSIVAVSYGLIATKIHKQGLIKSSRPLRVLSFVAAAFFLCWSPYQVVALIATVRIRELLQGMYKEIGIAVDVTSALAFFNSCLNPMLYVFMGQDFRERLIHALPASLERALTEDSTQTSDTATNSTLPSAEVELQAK

Take `COc1cc(F)c([C@@H]2CN(c3c(OC)ccn(C)c3=O)C(=O)[C@H]2NC(=O)NC2CCc3cc(OC)ccc3C2)c(F)c1` (stereo partly shown) [Example 57]: the concentration giving a half-maximal response (EC50) (as a rule, the midpoint of the concentration-response curve) was 26 nM on human FPR2 (setting [1]) and 1.2 nM at human FPR1 (setting [2]).
For `COc1cc(F)c([C@@H]2CN(c3nccc(N4CCN5CCCC5C4)c3C(F)(F)F)C(=O)[C@H]2NC(=O)N[C@H]2CC[C@H](C(F)F)CC2)c(F)c1` (single isomer, unassigned) [Example 102] the same measures were 7.9 nM and 1000 nM.
On the same counts, the results for `COCCn1cccc(N2C[C@@H](c3ccc(Cl)cc3)[C@H](NC(=O)NC3CCc4cc(OC)ccc4C3)C2=O)c1=O` (stereo partly shown) [Example 55] are 24 nM and 0.5 nM.
On the same counts, the results for `COc1cc(F)c([C@@H]2CN(c3ncccc3C(F)(F)F)C(=O)[C@H]2NC(=O)NC2CCc3cc(OC)ccc3C2(C)C)c(F)c1` (stereo partly shown) [Example 58] are 29 nM and 220 nM.
Turning to `COc1cc(F)c([C@@H]2CN(c3ncccc3C(F)(F)F)C(=O)[C@H]2NC(=O)N[C@H]2CC[C@H](C(F)F)CC2)c(F)c1` [Example 32], the EC50 at human FPR2 is 3.9 nM; at human FPR1 it was 1200 nM.
`COc1cc(F)c([C@@H]2CN(c3ncccc3C(F)(F)F)C(=O)[C@H]2NC(=O)NC2CCc3cc(OC)ccc3C2)c(F)c1` (stereo partly shown) [Example 46]: the figures for the concentration giving a half-maximal response (EC50) at human FPR2 (setting [1]) and on human FPR1 (setting [2]) were 7.1 nM and 1.5 nM, respectively.
For `COCCn1cccc(N2C[C@@H](c3c(F)cc(OC)cc3F)[C@H](NC(=O)NC3CCc4cc(Cl)ccc4C3)C2=O)c1=O` (stereo partly shown) [Example 17] the same measures were 1.7 nM and 0.6 nM.
In the case of `COc1cc(F)c([C@@H]2CN(c3nccc(NC4CCOC4)c3C(F)(F)F)C(=O)[C@H]2NC(=O)N[C@H]2CC[C@H](C(F)F)CC2)c(F)c1` (single isomer, unassigned) [Example 99], the figures for the EC50 on human FPR2 (setting [1]) and at human FPR1 (setting [2]) were 6.2 nM and 730 nM, respectively.
Take `COCCn1cccc(N2C[C@@H](c3ccc(OC)cc3)[C@H](NC(=O)NC3CCc4cc(OC)ccc4C3)C2=O)c1=O` (stereo partly shown) [Example 42]: the EC50 is 5.8 nM on human FPR2 (setting [1]) and 1.7 nM on human FPR1 (setting [2]).
On the same counts, the results for `COc1cc(F)c([C@@H]2CN(c3cccn(CCO)c3=O)C(=O)[C@H]2NC(=O)NC2CCc3cc(Cl)ccc3C2)c(F)c1` (stereo partly shown) [Example 19] are 1.9 nM and 30.1 nM.
For `COCCn1ccc(OC)c(N2C[C@@H](c3c(F)cc(OC)cc3F)[C@H](NC(=O)NC3CCc4cc(OC)ccc4C3)C2=O)c1=O` (stereo partly shown) [Example 50] the same measures were 12 nM and 1.2 nM.
For `COCCn1cccc(N2C[C@@H](c3c(F)cc(OC)cc3F)[C@H](NC(=O)NC3CCc4cc(OC)ccc4C3)C2=O)c1=O` (stereo partly shown) [Example 34] the same measures were 4.2 nM and 0.3 nM.
Take `CCn1cccc(N2C[C@@H](c3c(F)cc(OC)cc3F)[C@H](NC(=O)NC3CCc4cc(OC)ccc4C3)C2=O)c1=O` (stereo partly shown) [Example 41]: the EC50 on human FPR2 (setting [1]) worked out at 5.6 nM; on human FPR1 (setting [2]) it was 0.5 nM.
For `CCn1cccc(N2C[C@@H](c3c(F)cc(OC)cc3F)[C@H](NC(=O)NC3CCc4cc(OC)ccc4C3)C2=O)c1=O` (stereo partly shown) [Example 37], the results for the EC50 on human FPR2 (setting [1]) and on human FPR1 (setting [2]) were 4.5 nM and 11 nM, respectively.
For `CCn1cccc(N2C[C@@H](c3ccc(OC)cc3)[C@H](NC(=O)NC3CCc4cc(Cl)ccc4C3)C2=O)c1=O` (stereo partly shown) [Example 9] the same measures were 0.7 nM and 6 nM.
Regarding `COc1cc(F)c([C@@H]2CN(c3nccc(N4CCN(C)CC4)c3C(F)(F)F)C(=O)[C@H]2NC(=O)N[C@H]2CC[C@H](C(F)F)CC2)c(F)c1` [Example 30], the results for the EC50 at human FPR2 (setting [1]) and on human FPR1 (setting [2]) were 3.6 nM and 2500 nM, respectively.
Consider `COc1cc(F)c([C@@H]2CN(c3ncccc3C(F)(F)F)C(=O)[C@H]2NC(=O)NC2CCc3cc(Cl)ccc3C2)c(F)c1` (stereo partly shown) [Example 31], for which the concentration for a half-maximal effect (EC50) was found to be 3.8 nM at human FPR2 (setting [1]) and 110 nM at human FPR1 (setting [2]).
On the same counts, the results for `COc1ccc([C@H]2C[C@@H]2NC(=O)N[C@@H]2C(=O)N(c3ncccc3C(F)(F)F)C[C@H]2c2c(F)cc(OC)cc2F)cc1` [Example 49] are 9.9 nM and 2500 nM.
On the same counts, the results for `COc1cc(F)c([C@H]2[C@H](NC(=O)NC3CCc4cc(OC)ccc4C3)C(=O)N(c3ncccc3OC)[C@H]2C)c(F)c1` (stereo partly shown) [Example 18] are 1.8 nM and 0.2 nM.
On the same counts, the results for `COc1cc(F)c([C@@H]2CN(c3cccn(CC(O)C(F)(F)F)c3=O)C(=O)[C@H]2NC(=O)NC2CCc3cc(OC)ccc3C2)c(F)c1` (stereo partly shown) [Example 80] are 11 nM and 1 nM.
On to `COc1cc(F)c([C@@H]2CN(c3ncccc3C(F)(F)F)C(=O)[C@H]2NC(=O)NC2CCc3cc(OC)ccc3C2)c(F)c1` (stereo partly shown) [Example 47], for which the EC50 at human FPR2 (setting [1]) is 7.3 nM; on human FPR1 (setting [2]) it was more than 10000 nM.
For `CCn1cccc(N2C[C@@H](c3ccc(OC)cc3)[C@H](NC(=O)NC3CCc4cc(OC)ccc4C3)C2=O)c1=O` (stereo partly shown) [Example 12], the EC50 came to 0.9 nM at human FPR2 (setting [1]) and 0.8 nM at human FPR1 (setting [2]).
For `COc1cc(F)c([C@@H]2CN(c3nccc(NCC4CCCO4)c3C(F)(F)F)C(=O)[C@H]2NC(=O)N[C@H]2CC[C@H](C(F)F)CC2)c(F)c1` (stereo partly shown) [Example 93] the same measures were 14 nM and 1700 nM.
On the same counts, the results for `COc1cc(F)c([C@@H]2CN(c3nccc(NCC4CCOC4)c3C(F)(F)F)C(=O)[C@H]2NC(=O)N[C@H]2CC[C@H](C(F)F)CC2)c(F)c1` (single isomer, unassigned) [Example 73] are 320 nM and more than 1000 nM.
On the same counts, the results for `COCCn1cccc(N2C(=O)[C@@H](NC(=O)NC3CCc4cc(OC)ccc4C3(C)C)[C@H](c3c(F)cc(OC)cc3F)[C@@H]2C)c1=O` (stereo partly shown) [Example 62] are 36 nM and 23 nM.
`COCCn1ccc(C)c(N2C[C@@H](c3c(F)cc(OC)cc3F)[C@H](NC(=O)NC3CCc4cc(OC)ccc4C3)C2=O)c1=O` (stereo partly shown) [Example 7]: the EC50 was determined as 0.5 nM on human FPR2 (setting [1]) and 0.7 nM on human FPR1 (setting [2]).
As to `COc1cc(F)c([C@@H]2CN(c3nccc(NCC4CCOC4)c3C(F)(F)F)C(=O)[C@H]2NC(=O)N[C@H]2CC[C@H](C(F)F)CC2)c(F)c1` (single isomer, unassigned) [Example 74], the figures for the EC50 on human FPR2 (setting [1]) and at human FPR1 (setting [2]) were 26 nM and more than 1000 nM, respectively.
On the same counts, the results for `COc1cc(F)c([C@@H]2CN(c3nccc(NCCS(C)(=O)=O)c3C(F)(F)F)C(=O)[C@H]2NC(=O)N[C@H]2CC[C@H](C(F)F)CC2)c(F)c1` [Example 98] are 7.2 nM and more than 5000 nM.
On the same counts, the results for `COc1cc(F)c([C@@H]2CN(c3nccc(N4C[C@@H]5C[C@H]4CN5C)c3C(F)(F)F)C(=O)[C@H]2NC(=O)N[C@H]2CC[C@H](C(F)F)CC2)c(F)c1` (single isomer, unassigned) [Example 97] are 0.4 nM and 1400 nM.
On the same counts, the results for `COc1cc(F)c([C@@H]2CN(c3cccn(CCO)c3=O)C(=O)[C@H]2NC(=O)NC2CCc3cc(OC)ccc3C2)c(F)c1` (stereo partly shown) [Example 21] are 1.5 nM and 0.4 nM.
Regarding `COCC(CO)n1cccc(N2C[C@@H](c3c(F)cc(OC)cc3F)[C@H](NC(=O)NC3CCc4cc(OC)ccc4C3)C2=O)c1=O` (single isomer, unassigned) [Example 2], the EC50 at human FPR2 (setting [1]) is 20 nM; on human FPR1 (setting [2]) it was 40 nM.
Take `COCCn1cccc(N2C[C@@H](c3c(F)cc(OC)cc3F)[C@H](NC(=O)N[C@H]3CC[C@H](C(F)F)CC3)C2=O)c1=O` [Example 70]: the EC50 was determined as 33 nM at human FPR2 (setting [1]) and 1200 nM at human FPR1 (setting [2]).
